Measurements reported in EP0676201B1, “Use of a riminophenazine for treating MDR resistance” (priority 1994, dated 1995).
Converted amounts (≈) assume the structure as drawn. Like-named read-outs stand apart in the source and are kept apart here.

What was measured:
H69/LX4 [1] = assay: MTT assay, 7-day exposure: sensitivity of resistant (MDR) cells to chemotherapeutic agents with or without MDR inhibitor (Example 1); format: cell-based; details: Homo sapiens, 168 h
Description: (§1) A further test using no MDR inhibitor was used as a standard.
The cell lines used were human small cell lung cancer cell line HP69/P and a multi-drug resistant (MDR) sub-line H69/LX4, both of which were supplied by the MRC Clinical Oncology and Radiotherapeutics Unit, Hills Road, Cambridge, England. The maintenance of the cell lines and drug response assays was done as described by Twentyman et al in British Journal of Cancer Volume 65 pages 335-340. The H69/LX4 line was originally described by Twentyman et al in British Journal of Cancer Volume 53, pages 529-637 (1986).
The data in parenthesis represents fold sensitivity compared with the chemotherapeutic agent without the MDR inhibitor.

H69/P = assay: MTT assay, 7-day exposure: sensitivity of parent cells to chemotherapeutic agents with or without MDR inhibitor (Example 1); format: cell-based, human; details: for IC50: Homo sapiens, 168 h; for fold sensitivity compared with the chemotherapeutic agent without the MDR inhibitor, B669 / fold sensitivity compared with the chemotherapeutic agent without the MDR inhibitor, Clofazimine (B663) / fold sensitivity compared with the chemotherapeutic agent without the MDR inhibitor, CsA: value in parenthesis; for fold sensitivity compared with the chemotherapeutic agent without the MDR inhibitor, CsA: with CsA 5 µg/ml
Description: as §1

K562/MMB = assay: MTT assay, 7-day exposure to riminophenazines alone or with fixed doxorubicin or vinblastine (Example 4); format: cell-based; details: Homo sapiens, K562, 168 h
Description: A third cell line (562/MMB) used was a MDR leukemia cell line selected in vitro by progressive exposure to increasing concentrations of vinblastine in order to increase P-glycoprotein expression. […] This cell line expresses high levels of P-glycoprotein as determined by flowcytometry using the monoclonal antibody (MRK 16) against this molecule.
The effects were examined of a 7-day exposure of selected compounds on the sensitivity of the cell line (K562/MMB) to the standard chemotherapeutic agents doxorubicin and vinblastine, using the MTT assay.
The cells were seeded at 1 x 10^4 cells per well in 96 well microlitre plates in a volume of 200 µl of RPMI 1640 medium containing 10 % fetal calf serum and incubated with doxorubicin (12.5 ng/ml) or vinblastine (3 ng/ml). The amounts of MDR modulators used were 0.03, 0.06, 0.125, 0.5, 1.0 and 2.0 µg/ml.
After incubation at 37 °C for 7 days, 20 µl MTT (i.e. 3-[4,5-dimethylthiazol-2-yl]2,5-diphenyl-tetrazolium bromide) at 5 mg/ml was added to each well and the plates incubated for a further 4 hours. The cells were washed with phosphate buffered saline and the intracellular formazan crystals solubilized with dimethylsulphoxide, and the absorbency measured spectrophotometrically at a test wavelength of 540 nm and a reference wavelength of 620 nm.

H69/LX4 [2] = assay: [14C]-vinblastine accumulation in MDR cell line (Example 2); format: cell-based, human; details: 1 hour pretreatment; 250 µg/mℓ [14C]-vinblastine for 30 minutes
Description: The effect of riminophenazines on the accumulation of [^14C]-vinblastine was investigated. For these experiments, both of the above cell lines (H69/LX4 and H69/P) were prepared as described by Coley et al (Biochem. Pharmacal 38, 4467-4475 (1989)). After a 1 hour pretreatment with the MDR reversal agents, cells (1 x 10^6/mℓ) were exposed to 250 µg/mℓ [^14C]-vinblastine (1 µCi specific activity) for 30 minutes. […] The results are illustrated in Figure 3 of the accompanying drawings.

H69/LX4 [3] = assay: MTT assay, 7-day exposure to riminophenazines alone or with fixed doxorubicin or vinblastine (Example 3); details: Homo sapiens, 168 h, read-out: cytotoxic activity: concentrations at which cytotoxic
Description: The effects were examined of a 7-day exposure of selected compounds on the sensitivity of the cell line (H69/P) and the resistance cell line (H69/LX4) to the standard chemotherapeutic agents doxorubicin and vinblastine, using the MTT assay.
After incubation at 37°C for 7 days, 20 µℓ MTT (ie 3-[4,5-dimethylthiazol-2-yl]-2,5-diphenyl-tetrazolium bromide) at 5 mg/ml was added to each well and the plates incubated for a further 4 hours. The cells were washed with phosphate buffered saline and the intracellular formazan crystals solubilized with dimethylsulphoxide, and the absorbence measured spectrophotometrically at a test wavelength of 540 nm and a reference wavelength of 620 nm. The mean percentage inhibition ± SEM of four experiments using the relevant controls was taken.

[4] = read-out: IC50 of chemotherapeutic agent, MDR INHIBITOR CsA
[5] = H69/LX4, with B669 0.5 µg/ml, 7 day exposure, read-out: IC50 of chemotherapeutic agent, MDR INHIBITOR B669
[6] = H69/LX4, with Clofazimine 1 µg/ml, 7 day exposure, read-out: IC50 of chemotherapeutic agent, MDR INHIBITOR Clofazimine (B663)
[7] = read-out: IC50 of chemotherapeutic agent, MDR INHIBITOR B669
[8] = read-out: IC50 of chemotherapeutic agent, MDR INHIBITOR Clofazimine (B663)
[9] = in the presence of doxorubicin (12 ng/ml), read-out: IC 50 of riminophenazine, Doxorubicin
[10] = riminophenazine alone, mean of 2 experiments, read-out: IC 50 of riminophenazine, None
[11] = H69/LX4, no MDR inhibitor, 7 day exposure, mean of 2 - 4 experiments, read-out: IC50 of chemotherapeutic agent, MDR INHIBITOR None
[12] = H69/P, with Clofazimine 1 µg/ml
[13] = H69/P, no MDR inhibitor, 7 day exposure, mean of 2 - 4 experiments, read-out: IC50 of chemotherapeutic agent, MDR INHIBITOR None
[14] = H69/P, with B669 0.5 µg/ml, 7 day exposure, read-out: IC50 of chemotherapeutic agent, MDR INHIBITOR B669
[15] = H69/P, with Clofazimine 1 µg/ml, 7 day exposure, read-out: IC50 of chemotherapeutic agent, MDR INHIBITOR Clofazimine (B663)
[16] = in the presence of vinblastine (3 ng/ml), read-out: IC 50 of riminophenazine, Vinblastine
[17] = read-out: IC50 of chemotherapeutic agent, MDR INHIBITOR None

Structure (SMILES) | IC50 (H69/LX4 [1]; [4]) [ng/mL] | IC50 (H69/LX4 [1]; [5]) [ng/mL] | IC50 (H69/LX4 [1]; [6]) [ng/mL] | IC50 (H69/P; [4]) [ng/mL] | IC50 (K562/MMB; [9]) [ng/mL] | IC50 (K562/MMB; [10]) [ng/mL] | IC50 (H69/LX4 [1]; [11]) [ng/mL] | fold sensitivity compared with the chemotherapeutic agent without the MDR inhibitor, B669 (H69/P; H69/P, with B669 0.5 µg/ml) [fold] | fold sensitivity compared with the chemotherapeutic agent without the MDR inhibitor, Clofazimine (B663) (H69/P; [12]) [fold] | fold sensitivity compared with the chemotherapeutic agent without the MDR inhibitor, CsA (H69/P; H69/P) [fold] | IC50 (H69/P; [13]) [ng/mL] | IC50 (H69/P; [14]) [ng/mL] | IC50 (H69/P; [15]) [ng/mL] | IC50 (K562/MMB; [16]) [ng/mL] | other results
CO[C@@]12[C@H](COC(N)=O)C3=C(C(=O)C(C)=C(N)C3=O)N1C[C@@H]1N[C@@H]12 [Mitomycin C] | 80 (≈ 0.239 µM) | 40 (≈ 0.12 µM) | 60 (≈ 0.179 µM) | 9 (≈ 0.0269 µM) |  |  |  |  |  |  |  |  |  |  | IC50 (H69/P; [7]): 10 ng/mL (≈ 0.0299 µM); IC50 (H69/P; [8]): 10 ng/mL (≈ 0.0299 µM)
c1ccc(Nc2cc3nc4ccccc4n(-c4ccccc4)c-3cc2=NC2CCCCC2)cc1 [Compound B669] |  |  |  |  | 69 | 139 (≈ 0.313 µM) |  |  |  |  |  |  |  |  | vinblastine accumulation in the MDR cell line (H69/LX4) (H69/LX4 [2]): significant enhancement
CC[C@]1(O)C[C@@H]2CN(CCc3c([nH]c4ccccc34)[C@@](C(=O)OC)(c3cc4c(cc3OC)N(C)[C@H]3[C@@](O)(C(=O)OC)[C@H](OC(C)=O)[C@]5(CC)C=CCN6CC[C@]43[C@@H]65)C2)C1 [Vinblastine] | 8 (≈ 0.00986 µM) | 8 (≈ 0.00986 µM) | 8 (≈ 0.00986 µM) | 0.7 (≈ 0.000863 µM) |  |  | 120 (≈ 0.148 µM) | 1.1 | 1.3 | 1.4 | 1 (≈ 0.00123 µM) | 0.9 (≈ 0.00111 µM) | 0.8 (≈ 0.000986 µM) |  | 
COc1cc([C@@H]2c3cc4c(cc3[C@@H](O[C@@H]3O[C@@H]5CO[C@@H](C)O[C@H]5[C@H](O)[C@H]3O)[C@H]3COC(=O)[C@H]23)OCO4)cc(OC)c1O [Etoposide] | 0.08 (≈ 0.000136 µM) | 0.09 (≈ 0.000153 µM) | 2.6 (≈ 0.00442 µM) | 0.09 (≈ 0.000153 µM) |  |  | 13 (≈ 0.0221 µM) | 1.2 | 0.6 | 0.8 | 0.7 (≈ 0.00119 µM) | 0.06 (≈ 0.000102 µM) | 0.11 (≈ 0.000187 µM) |  | 
CC1(C)CC(N=c2cc3n(-c4cc(Cl)c(Cl)c(Cl)c4)c4ccccc4nc-3cc2Nc2cc(Cl)c(Cl)c(Cl)c2)CC(C)(C)N1 [Compound B4169, N,5-bis(3,4,5-trichlorophenyl)-3,5-dihydro-3[(2',2',6',6'-tetramethyl-4-piperidyl)-imino]-2-phenazinamine] |  |  |  |  | 969 | 2860 (≈ 4.04 µM) |  |  |  |  |  |  |  | 116 | MCC (H69/LX4 [3]): > 12.5 µg/mL
COc1cccc2c1C(=O)c1c(O)c3c(c(O)c1C2=O)C[C@@](O)(C(=O)CO)C[C@@H]3O[C@H]1C[C@H](N)[C@H](O)[C@H](C)O1 [Doxorubicin] | 10 (≈ 0.0184 µM) | 16 (≈ 0.0294 µM) | 10 (≈ 0.0184 µM) | 3 (≈ 0.00552 µM) |  |  | 110 (≈ 0.202 µM) | 1.0 | 0.8 | 1.0 | 3 (≈ 0.00552 µM) | 3 (≈ 0.00552 µM) | 4 (≈ 0.00736 µM) |  | 
CC1(C)CC(N=c2cc3n(-c4cccc(C(F)(F)F)c4)c4ccc(Cl)cc4nc-3cc2Nc2cccc(C(F)(F)F)c2)CC(C)(C)N1 [Compound B4127, N,5-bis(3-trifluoromethylphenyl)-8-chloro-3,5-dihydro-3-[(2',2',6',6'-tetramethyl-4-piperidyl)-imino]-2-phenazinamine] |  |  |  |  | 168 | 425 (≈ 0.632 µM) |  |  |  |  |  |  |  | 70 | 
COc1cccc2c1C(=O)c1c(O)c3c(c(O)c1C2=O)C[C@@](O)(C(C)=O)C[C@@H]3O[C@H]1C[C@H](N)[C@H](O)[C@H](C)O1 [Daunorubicin] | 4 (≈ 0.00758 µM) | 15 (≈ 0.0284 µM) | 9 (≈ 0.0171 µM) | 2 (≈ 0.00379 µM) |  |  | 36 (≈ 0.0682 µM) | 1.2 | 1.0 | 1.0 | 2 (≈ 0.00379 µM) | 1.6 (≈ 0.00303 µM) | 2 (≈ 0.00379 µM) |  | 
CN(Cc1cnc2nc(N)nc(N)c2n1)c1ccc(C(=O)N[C@@H](CCC(=O)O)C(=O)O)cc1 [Methotrexate] | 4600 (≈ 10.1 µM) | 3500 (≈ 7.7 µM) | 4400 (≈ 9.68 µM) | 2400 (≈ 5.28 µM) |  |  | 3200 (≈ 7.04 µM) | 1.0 | 0.9 | 1.5 | 3500 (≈ 7.7 µM) | 3400 (≈ 7.48 µM) | 3700 (≈ 8.14 µM) |  | 
CC(C)N=c1cc2n(-c3ccc(Cl)cc3)c3ccccc3nc-2cc1Nc1ccc(Cl)cc1 [Compound B663, N,5-bis-(4-chlorophenyl)-3,5-dihydro-3-[(1-methylethyl)imino]-2-phenazinamine] |  |  |  |  | 135 | 225 (≈ 0.475 µM) |  |  |  |  |  |  |  | < 50 | vinblastine accumulation in the MDR cell line (H69/LX4) (H69/LX4 [2]): significant enhancement
CC(C)c1ccc(Nc2cc3nc4ccccc4n(-c4ccc(C(C)C)cc4)c-3cc2=NC2CC(C)(C)NC(C)(C)C2)cc1 [Compound B4158, N,5-bis(4-isopropylphenyl)-3,5-dihydro-3-[(2',2',6',6'-tetramethyl-4-piperidyl)-imino]-2-phenazinamine] |  |  |  |  | 155 | 272 (≈ 0.464 µM) |  |  |  |  |  |  |  | 58 | 
O=P1(N(CCCl)CCCl)NCCCO1 (centres unmarked) [Cyclophosphamide] | 1700 (≈ 6.51 µM) |  |  | 1600 (≈ 6.13 µM) |  |  |  | 1.0 | 0.9 | 1.1 |  |  |  |  | IC50 (H69/LX4 [1]; [7]): 1400 ng/mL (≈ 5.36 µM); IC50 (H69/LX4 [1]; [8]): 1600 ng/mL (≈ 6.13 µM); IC50 (H69/LX4 [1]; [17]): 1600 ng/mL (≈ 6.13 µM); IC50 (H69/P; [7]): 1800 ng/mL (≈ 6.89 µM); IC50 (H69/P; [8]): 1900 ng/mL (≈ 7.28 µM); IC50 (H69/P; [17]): 1800 ng/mL (≈ 6.89 µM)
CC(C)c1ccc(Nc2cc3nc4cc(Cl)ccc4n(-c4ccc(C(C)C)cc4)c-3cc2=NC2CC(C)(C)NC(C)(C)C2)cc1 [Compound B4159, N,5-bis(4-isopropylphenyl)-8-chloro-3,5-dihydro-3-[(2',2',6',6'-tetramethyl-4-piperidyl)-imino]-2-phenazinamine] |  |  |  |  | 514 | 912 (≈ 1.47 µM) |  |  |  |  |  |  |  | 130 | 
